Paper PMC10823475, “Design, Synthesis, and Evaluation of Inhibitors of Hedgehog Acyltransferase” (Journal of Medicinal Chemistry, 2024)
Where “and” joins values, the source holds several entries; their conditions need not be identical. Equal entries are not always repeated.

Assays:
[1] = biological target: T1, purified HHAT (Homo sapiens, UniProt Q5VTY9); test: Acyl-cLIP assay, inhibition of purified HHAT; assay type: biochemical; conditions: for LLEAcyl-cLIP: from Acyl-cLIP IC50 and clogDpH7.4; for IC50: purified HHAT, read-out: Acyl-cLIP Assay IC50 (CI95)
T1 construct: made in house
Protocol: The inhibitory potency of all 50 compounds against purified HHAT was quantified using the acylation-coupled lipophilic induction of polarization (acyl-cLIP) assay recently developed in our lab, a universally applicable assay for high-throughput analysis of protein–lipid transferases and hydrolases.[31],[40] In brief, in this assay a fluorescently labeled peptide based on the N-terminal sequence of SHH is incubated with N-dodecyl β-D-maltoside (DDM) solubilized purified HHAT, palmitoyl-CoA, and HHAT inhibitors. Binding of the lipidated peptide product to the DDM micelle results in decreased tumbling rate and an increase in polarization of fluorescence emission, enabling facile quantification of HHAT activity. Initially, % HHAT inhibition was determined at 50 μM and 25 μM for all analogues. […] HHAT is a 12-pass TM protein,[14] and we considered whether lipophilicity might bias inhibition; pIC50 values were compared to calculated log D, which indicated no significant correlation (SI, Table S1 and Figure S2). We concluded that lipophilicity is not a general driver of HHAT inhibitory potency.
The acyl-cLIP assay has been described previously.[40] Briefly, SHH-FAM peptide was diluted in buffer A (100 mM MES, 20 mM NaCl, 1 mM DTT, 1 mM TCEP, 0.1% BSA, pH 6.5) to a concentration of 2 μM. Palmitoyl-CoA (Sigma-Aldrich) was diluted in buffer A to 7.5 μM and recombinant HHAT (obtained by following the published protocol[14]) in buffer B (20 mM HEPES, 350 mM NaCl, 1% DDM, 5% glycerol, pH 7.3) diluted to 44 μg/mL. 1.5 μL of a 50 mM inhibitor DMSO stock was diluted with 18.5 μL of DMSO and further serial diluted (1:1). For each condition, 6 μL of the HHAT working stock and […] of the SHH-peptide working stock were mixed with 3 μL of the corresponding inhibitor concentration or DMSO vehicle. Twelve μL/well of this mixture was split into four wells of a black 384 well plate. To start the reaction, 8 μL of the Pal-CoA working stock were added to each well and fluorescence anisotropy and the total fluorescence recorded on an EnVision Xcite 2104 (PerkinElmer) over 30 min (emission filter 1 = FITC FP P-pol 535; emission filter 2 = FITC S-pol 535; excitation filter: FITC FP 480; measurement height = 6.5 mm; detector gain = 0; high concentration gain). Initial rate constants were determined by linear regression and normalized to DMSO control and samples with buffer B instead of HHAT. IC50 values were extracted from the corresponding dose response curves using a “sigmoidal dose response (variable slope)” model in GraphPad Prism 5 (GraphPad Software, Inc.).

[2] = test system: HEK293a SHH+ cells; test: MTS assay, cytotoxicity (72 h); assay type: cell-based; conditions: for decrease in cell viability / cell survival: 12.5 μM
Protocol: (§1) The survival of HEK293a SHH^+ cells is independent of HH signaling,[35] therefore, the cytotoxicity of analogues was tested using the MTS assay to investigate off-target toxicity. In this assay, HEK293a SHH^+ cells were treated with DMSO vehicle or varying concentrations of analogues for 72 h. Subsequently, a mixture of 1-methoxy phenazine methosulfate (PMS) and [3-(4,5-dimethylthiazol-2-yl)-5-(3-carboxymethoxyphenyl)-2-(4-sulfophenyl)-2H-tetrazolium] (MTS) was added to enable quantification of cell number via colorimetric analysis. […] Compounds 3, 17, 19, 32, 34, 38, and 45, which all contain a 2-((2-methylbutyl)amino)acetyl, were toxic to HEK293a SHH^+ cells, as were ureas 26, 40, and 41.
(§2) HEK293a SHH^+ cells were plated at 5000 cells/well in a 96-well plate (Nunc) using a volume of 50 μL/well and cultured for 24 h as described. Cells were treated with 100 μL/well of either DMSO vehicle, Puromycin (2 μg/mL), or stated analogues (0.14–100 μM final) in DMEM supplemented with 10% FBS. After 72 h, 20 μL/well of a mixture of 1-methoxy phenazine methosulfate (PMS) and [3-(4,5-dimethylthiazol-2-yl)-5-(3-carboxymethoxyphenyl)-2-(4-sulfophenyl)-2H-tetrazolium] (MTS) at a ratio of MTS/PMS = 2/0.92 mg/mL in PBS was added and the plates were incubated for 3 h at 37 °C. Subsequently, the absorption at 490 nm was recorded using an EnVision Xcite 2104 (PerkinElmer), and the response was normalized to vehicle control and Puromycin treated samples. Dose response curves were fitted to a “sigmoidal dose response (variable slope)” model using GraphPad Prism 5 (GraphPad Software, Inc.).

[3] = MTS assay, cytotoxicity (72 h); assay type: cell-based; conditions: human, HEK293a SHH+ cells, 72 h; for CC50 at 72 h: read-out: MTS Assay (HEK293a SHH+) CC50 (CI95)
Protocol: as §1, §2

[4] = test system: HH signaling (HEK293a SHH+ conditioned media on SHH-Light2 cells); test: Light2 dual-luciferase cell-based HH signaling assay (Firefly); conditions: Firefly luciferase, Light2 cells; read-out: HH signaling inhibition EC50 (CI95)
Protocol: Subsequently, the effect of analogues on HH signaling was investigated using a cellular luciferase reporter assay. Light2 cells derived from NIH3T3 cells constitutively express Renilla luciferase as an internal control for cell density alongside Firefly luciferase under the control of a HH-responsive Gli promoter.[43] HEK293a SHH^+ cells were incubated with varying inhibitor concentrations and SHH-containing conditioned media transferred to the NIH3T3-Light2 cells to mimic paracrine signaling[30],[35] (Figure 6A).
The Light2 cell-based signaling assay has been described previously.[35] Briefly, HEK293a SHH^+ cells were plated at 120,000 cells/well of a 12-well plate in a volume of 1 mL/well and cultured as described above. After 24 h, cells were washed with PBS, followed by addition of 1 mL of media containing 0.2% DMSO or varying inhibitor concentrations in DMSO (0.041–30 μM final). Additionally, SHH-Light2 cells were plated at 20,000 cells/well of a 96-well plate in 50 μL media. After another 24 h, 300 μL of the conditioned media were collected from each well of the treated HEK293a SHH^+ cells, centrifuged at 1000g for 10 min to remove detached cells and split into three wells of the SHH-Light2 cells (100 μL/well; 150 μL final volume in each well). The treated Light2 cells were cultured for another 48 h and subsequently washed with PBS. Firefly and Renilla luciferase activity was measured using the Dual-Luciferase reporter system (Promega Corporation, USA). Then 20 μL of 1× passive lysis buffer were added to each well. After 30 min at RT, 5 μL of each lysate were transferred to a white opaque 96-well plate. Then 20 μL/well of luciferase assay reagent II was added and the luminescence immediately recorded using a SpectraMax i3x plate reader (Molecular Devices LLC). Subsequently, 20 μL/well of 1× Stop&Glo substrate in Stop&Glo buffer was added and the luminescence immediately recorded for a second time. Data was evaluated using a “sigmoidal dose response (variable slope)” model in GraphPad Prism 5 (GraphPad Software, Inc.). The luminescence signal of the Firefly luciferase was normalized to the DMSO vehicle (100%) and the unconditioned media (0%) controls.

[5] = PAMPA parallel artificial membrane permeability assay; conditions: for recovery at 16 h, 10 µM / Papp at 16 h, 10 μM: PAMPA
Protocol: Passive diffusion was estimated using the PAMPA method. […] The donor plate was a MultiScreen-IP Plate with 0.45 μm hydrophobe Immobilon-P Membrane (Millipore, #MAIPNTR10) and the acceptor plate was a MultiScreen 96-well Transport Receiver Plate (Millipore, #MATRNPS50). […] Acceptor pH was 7.4. All samples were analyzed against an external, matrix-matched, standard curve by LC-MS/MS with a Waters (Elstree, Herts. UK) Acquity H-class LC system coupled to a Waters TQ-S mass spectrometer. Permeability values (cm/s) were calculated using the following equation: [drawing 2] and VD = volume of donor; VA = volume of acceptor; area = surface area of the membrane · porosity.

[6] = pH 5, PAMPA Papp pH 5, donor pH 5, 10 µM
[7] = pH 5, PAMPA Permeability Class pH 5, donor pH 5, 10 µM

T1 sequence (Q5VTY9 whole entry): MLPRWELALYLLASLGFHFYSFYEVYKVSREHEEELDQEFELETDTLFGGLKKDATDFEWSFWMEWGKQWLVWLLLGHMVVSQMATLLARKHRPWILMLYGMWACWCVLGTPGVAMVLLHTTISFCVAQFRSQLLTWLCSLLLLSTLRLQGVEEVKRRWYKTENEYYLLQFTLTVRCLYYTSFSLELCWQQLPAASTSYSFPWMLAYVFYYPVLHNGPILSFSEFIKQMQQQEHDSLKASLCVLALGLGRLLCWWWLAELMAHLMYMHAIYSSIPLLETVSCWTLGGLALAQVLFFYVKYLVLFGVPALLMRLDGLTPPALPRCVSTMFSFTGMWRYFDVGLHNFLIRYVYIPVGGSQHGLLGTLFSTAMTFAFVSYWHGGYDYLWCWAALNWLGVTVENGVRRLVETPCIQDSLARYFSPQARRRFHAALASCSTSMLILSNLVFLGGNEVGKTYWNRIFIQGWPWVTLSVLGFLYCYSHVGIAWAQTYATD

Row | Compound | inhibition at 25 µM [1] [%] | inhibition at 50 µM [1] [%] | LLEAcyl-cLIP [1] | IC50 [1] | toxicity to HEK293a SHH+ cells [2] | CC50 at 72 h [3] [µM] | viability at 72 h, 12.5 µM [3] [%] | viability at 72 h, 25 µM [3] [%] | EC50 [4] [µM] | other results
1 | CCC(C)CNCC(=O)N1CCc2sccc2C1COc1cccc(C)c1 (stereo not drawn) [Compound 3] | 52 ± 3 | 63 ± 4 | 3.16 | 1.44 µM | toxic | 8.4 | 31 ± 2 | 12 ± 3 |  | fold more potent than analogues 19, 32, and 34 ([1]; meta-methyl on 4-position aromatic ring): 2–5 fold; decrease in cell viability / cell survival [2]: 69%
2 | C=CC(=O)N1CCc2sccc2C1c1cccc(C)c1 (stereo not drawn) [Compound 16] | 51 ± 7 | 62 ± 8 | 0.66 | 15 µM |  | 19.8 | 51 ± 1 | 34 ± 3 | 2.96 | 
3 | CC(=O)N1CCc2sccc2C1c1ccccn1 (stereo not drawn) [Compound 18] | 49 ± 1 | 72 ± 1 | 2.73 | 24 µM and 23.7 µM |  | > 100 | 97 ± 2 | 98 ± 2 |  | decrease in cell viability / cell survival [2]: < 30%
4 | CC(=O)N1CCc2sccc2C1c1cccc(C)n1 (stereo not drawn) [Compound 21] | 72 ± 3 | 82 ± 3 | 2.84 | 13.4 µM |  | > 100 | 98 ± 4 | 94 ± 3 | 5.46 | 
5 | Cc1cccc(C2c3ccsc3CCN2C(=O)CNCCC(C)C)n1 (stereo not drawn) [Compound 25] | 80 ± 5 | 86 ± 4 | 3.90 | 4.62 µM |  | 15.3 | 74 ± 2 | 27 ± 4 | 4.25 | 
6 | COc1ccccc1C1c2ccsc2CCN1C(C)=O (stereo not drawn) [Compound 31] | 68 ± 4 | 81 ± 2 | 2.21 | 11.9 µM |  | 16.5 | 60 ± 4 | 23 ± 1 | > 30 | 
7 | CCC(C)CNCC(=O)N1CCc2sccc2C1c1ccccc1O (stereo not drawn) [Compound 34, 1-(4-(2-Hydroxyphenyl)-6,7-dihydrothieno[3,2-c]pyridin-5(4H)-yl)-2-((2-methylbutyl)amino)ethan-1-one] | 92 ± 1 | 93 ± 1 | 3.35 |  | toxic | 6.1 | 24 ± 1 | 20 ± 1 |  | 
8 | CC(C)CCNC(=O)N1CCc2ccccc2C1c1ccccc1 (stereo not drawn) [Compound 40, N-Isopentyl-1-phenyl-3,4-dihydroisoquinoline-2(1H)-carboxamide] | 0 | 4 ± 5 |  | > 25 µM | toxic | 1.8 | 14 ± 4 | 12 ± 3 |  | HHAT inhibition in the acyl-cLIP assay [1]: inactivity
9 | COCCNC(=O)N1CCc2ccccc2C1c1ccccc1 (stereo not drawn) [Compound 41, N-(2-Methoxyethyl)-1-phenyl-3,4-dihydroisoquinoline-2(1H)-carboxamide] | 0 | 27 ± 3 |  | > 25 µM | toxic | 20.2 | 83 ± 3 | 53 ± 2 |  | HHAT inhibition in the acyl-cLIP assay [1]: inactivity
10 | C=CC(=O)N1CCCCC1c1ccccn1 (stereo not drawn) [Compound 49, 1-(2-(Pyridin-2-yl)piperidin-1-yl)prop-2-en-1-one] | 8 ± 1 | 3 ± 1 |  | > 25 µM |  | > 100 | 96 ± 2 | 89 ± 2 |  | 
11 | CCC(C)CNCC(=O)N1CCCCC1c1ccccn1 (stereo not drawn) [Compound 50, 2-((2-Methylbutyl)amino)-1-(2-(pyridin-2-yl)piperidin-1-yl)ethan-1-one] | 8 ± 1 | 3 ± 1 |  | > 25 µM |  | > 100 | 88 ± 2 | 86 ± 2 |  | 
12 | O=c1ccc2ccccc2o1 [Coumarin, reference compound] |  |  |  |  |  |  |  |  |  | recovery at 16 h, 10 µM ([5]; pH 5): 99%; Papp at 16 h, 10 μM [5, 6]: 1240 nm/s; Papp at 16 h, 10 μM [5, 7]: > 200 nm/s; recovery at 16 h, 10 µM ([5]; pH 6.5): 99%; recovery at 16 h, 10 µM ([5]; pH 7.4): 114%; PAMPA Papp pH 6.5 ([5]; donor pH 6.5, 10 µM): >eqm; PAMPA Permeability Class pH 6.5 ([5]; donor pH 6.5, 10 µM): >eqm; PAMPA Papp pH 7.4 ([5]; donor pH 7.4, 10 µM): >eqm; PAMPA Permeability Class pH 7.4 ([5]; donor pH 7.4, 10 µM): >eqm
13 | CC(C)(C)NCC(O)COc1cccc2c1CC(O)C(O)C2 (stereo not drawn) [Nadolol, reference compound] |  |  |  |  |  |  |  |  |  | recovery at 16 h, 10 µM ([5]; pH 5): 97%; Papp at 16 h, 10 μM [5, 6]: < 4 nm/s; Papp at 16 h, 10 μM [5, 7]: < 50 nm/s; Papp at 16 h, 10 μM ([5]; pH 6.5, PAMPA Papp pH 6.5, donor pH 6.5, 10 µM): < 4 nm/s; Papp at 16 h, 10 μM ([5]; pH 6.5, PAMPA Permeability Class pH 6.5, donor pH 6.5, 10 µM): < 50 nm/s; recovery at 16 h, 10 µM ([5]; pH 7.4): 135%; Papp at 16 h, 10 μM ([5]; pH 7.4, PAMPA Papp pH 7.4, donor pH 7.4, 10 µM): < 3 nm/s; Papp at 16 h, 10 μM ([5]; pH 7.4, PAMPA Permeability Class pH 7.4, donor pH 7.4, 10 µM): < 50 nm/s
